Experiment [1] concerns acute myelocytic leukemia (AML) cell line MV4-11. As to the kind of experiment: Oncology cell growth assay (3-day proliferation, CellTiter-Glo). In kind it is cell-based. The conditions noted are these: Homo sapiens, MV4-11 cells, 3000 cells/well, compounds listed under IC50 range headings, read-out: MV411 IC50 (gIC50, inhibition of proliferation). The method in brief:
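Luminescence from CellTiter-Glo served as the growth read-out after MV4-11 cells (3000/well) were cultured with compound for 72 hours. Final concentrations spanned 10 to 0.0045 μM in 3-fold steps. gIC50 values were derived by four-parameter logistic fitting relative to DMSO and cell-free controls.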
On the technique in general: ATP-based viability assays read luminescence as a measure of living cells.

The target of experiment [2] is T1, BRD4 Bromodomain 2 (BRD4 BD2) (Homo sapiens, UniProt O60885).
T1 construct: 333-460 were cloned, expressed, and purified to homogeneity
Put plainly: AlphaScreen binding assay, BRD4 BD2. The conditions noted are these: His-tagged BRD4 BD2 100 nM, biotinylated H4 (1-21) K5/8/12/16 tetra-acetylated peptide 100 nM, compounds listed under IC50 range headings. In short, it runs like this:
(§1)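 Compound dilution series were mixed with His-tagged BRD4 bromodomain and biotinylated tetra-acetylated H4 (1-21) peptide at pH 7.3 (BD1 and peptide at 50 nM, BD2 and peptide at 100 nM). Donor and acceptor beads were then added, and plates were equilibrated at least 1 h before reading. IC50 values were fitted with a four-parameter logistic model.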
For orientation: Bead proximity is the source of the signal in Alpha formats.

The target of experiment [3] is T2, BRD4 Bromodomain 1 (BRD4 BD1) (Homo sapiens, UniProt O60885).
T2 construct: 44-168 and BRD4 BD2
Put plainly: AlphaScreen binding assay, BRD4 BD1. The note with it: His-tagged BRD4 BD1 50 nM, biotinylated H4 (1-21) K5/8/12/16 tetra-acetylated peptide 50 nM, compounds listed under IC50 range headings. The method in brief: as §1

Where two headings read alike, the source gives them in different places.

`CC(=O)N1c2ccc(-c3cnn(C4CC4)c3)c(OC(F)C(N)=O)c2CC[C@@H]1C` (single isomer, unassigned) [I-64]: the IC50 is above 1000 nM in experiment [1] (72 hours), at least 500 nM in experiment [2] and at least 10000 nM in experiment [3].
`CC=Cn1c(Oc2c(-c3cnn(C4CC4)c3)ccc3c2CC[C@H](C)N3C(C)=O)nc2ccccc21` (single isomer, unassigned) [I-352]: the IC50 was 500 to 1000 nM in experiment [1] (MV4-11, 72 h); 50 to 500 nM in experiment [2]; 1000 to 10000 nM in experiment [3].
Consider `CCCOc1c(-c2cnn(CCO)c2)ccc2c1CC[C@H](C)N2C(C)=O` [I-1, (S)-1-(6-(1-(2-hydroxyethyl)-1H-pyrazol-4-yl)-2-methyl-5-propoxy-3,4-dihydroquinolin-1 (2H)-yl)ethanone], for which the IC50 in experiment [1] (72 hours) was below 500 nM; in experiment [2] it was 50 to 500 nM; in experiment [3], 100 to 1000 nM.
Consider `CC(=O)N1c2ccc(-c3cnn(C4CC4)c3)c(OCC(=O)N3CCC3)c2CC[C@@H]1C` [I-7, (S)-2-(1-acetyl-6-(1-cyclopropyl-1H-pyrazol-4-yl)-2-methyl-1,2,3,4-tetrahydroquinolin-5-yloxy)-1-(azetidin-1-yl)ethanone], for which the IC50 in experiment [1] (MV4-11, 72 h) is below 500 nM; in experiment [2], 50 to 500 nM; in experiment [3], 100 to 1000 nM.
Regarding `CC(=O)N1c2ccc(-c3cnn(C4CC4)c3)c(OCC(=O)N3CCCCC3)c2CC[C@@H]1C` [I-8, (S)-2-(1-acetyl-6-(1-cyclopropyl-1H-pyrazol-4-yl)-2-methyl-1,2,3,4-tetrahydroquinolin-5-yloxy)-1-(piperidin-1-yl)ethanone], the IC50 in experiment [1] (MV4-11, 72 h) was below 500 nM; in experiment [2], 50 to 500 nM; in experiment [3], 100 to 1000 nM.
On to `COC(=O)N1c2ccc(-c3cnn(C4CC4)c3)c(OCCF)c2CC[C@@H]1C` [I-11, (S)-methyl 6-(1-cyclopropyl-1H-pyrazol-4-yl)-5-(2-fluoroethoxy)-2-methyl-3,4-dihydroquinoline-1(2H)-carboxylate], for which the IC50 in experiment [1] (MV4-11, 72 h) was above 1000 nM; in experiment [2] it was below 50 nM; in experiment [3] it was 1000 to 10000 nM.
In the same order, the values of `COC(=O)N1c2ccc(-c3cnn(C4CC4)c3)c(OCCC(F)(F)F)c2CC[C@@H]1C` [I-13, (S)-methyl 6-(1-cyclopropyl-1H-pyrazol-4-yl)-2-methyl-5-(3,3,3-trifluoropropoxy)-3,4-dihydroquinoline-1(2H)-carboxylate] are 500 to 1000 nM, 50 to 500 nM and 1000 to 10000 nM.
In the same order, the values of `COC(=O)N1c2ccc(-c3cnn(C4CC4)c3)c(OC(F)(F)C(N)=O)c2CC[C@@H]1C` [I-14, (S)-methyl 5-(2-amino-1,1-difluoro-2-oxoethoxy)-6-(1-cyclopropyl-1H-pyrazol-4-yl)-2-methyl-3,4-dihydroquinoline-1(2H)-carboxylate] are above 1000 nM, 50 to 500 nM and 1000 to 10000 nM.
With `COC(=O)N1c2ccc(-c3cnn(C4CC4)c3)c(OCC(C)(C)CO)c2CC[C@@H]1C` [I-17, (S)-methyl 6-(1-cyclopropyl-1H-pyrazol-4-yl)-5-(3-hydroxy-2,2-dimethylpropoxy)-2-methyl-3,4-dihydroquinoline-1(2H)-carboxylate], the IC50 fell in the range of 500 to 1000 nM in experiment [1] (MV4-11, 72 h); 50 to 500 nM in experiment [2]; 100 to 1000 nM in experiment [3].
Consider `COC(=O)N1c2ccc(-c3cnn(C4CC4)c3)c(O[C@H](F)C(N)=O)c2CC[C@@H]1C` [I-19, (S)-methyl 5-((R)-2-amino-1-fluoro-2-oxoethoxy)-6-(1-cyclopropyl-1H-pyrazol-4-yl)-2-methyl-3,4-dihydroquinoline-1(2H)-carboxylate], for which the IC50 in experiment [1] (MV4-11, 72 h) is above 1000 nM; in experiment [2] it was 50 to 500 nM; in experiment [3], 1000 to 10000 nM.
In the same order, the values of `COC(=O)N1c2ccc(-c3cnn(C4CC4)c3)c(O[C@@H](F)C(N)=O)c2CC[C@@H]1C` [I-20, (S)-methyl 5-((S)-2-amino-1-fluoro-2-oxoethoxy)-6-(1-cyclopropyl-1H-pyrazol-4-yl)-2-methyl-3,4-dihydroquinoline-1(2H)-carboxylate] are above 1000 nM, at least 500 nM and at least 10000 nM.
Regarding `COC(=O)N1c2ccc(-c3cnn(C4CC4)c3)c(OCC(=O)N(C)C3CC3)c2CC[C@@H]1C` [I-22, (S)-methyl 5-(2-(cyclopropyl(methyl)amino)-2-oxoethoxy)-6-(1-cyclopropyl-1H-pyrazol-4-yl)-2-methyl-3,4-dihydroquinoline-1(2H)-carboxylate], the IC50 in experiment [1] (MV4-11, 72 h) was below 500 nM; in experiment [2], below 50 nM; in experiment [3], 100 to 1000 nM.
Taken in the same sequence, the figures for `COC(=O)N1c2ccc(-c3cnn(C4CC4)c3)c(OCC(=O)N3CCC3)c2CC[C@@H]1C` [I-23, (S)-methyl 5-(2-(azetidin-1-yl)-2-oxoethoxy)-6-(1-cyclopropyl-1H-pyrazol-4-yl)-2-methyl-3,4-dihydroquinoline-1(2H)-carboxylate] were 500 to 1000 nM, 50 to 500 nM and 100 to 1000 nM.
For the compound `COC(=O)N1c2ccc(-c3cnn(C4CC4)c3)c(OCC(=O)N3CCCCC3)c2CC[C@@H]1C` [I-24, (S)-methyl 6-(1-cyclopropyl-1H-pyrazol-4-yl)-2-methyl-5-(2-oxo-2-(piperidin-1-yl)ethoxy)-3,4-dihydroquinoline-1(2H)-carboxylate], the IC50 was above 1000 nM in experiment [1] (MV4-11, 72 h); below 50 nM in experiment [2]; 100 to 1000 nM in experiment [3].
In the same order, the values of `COC(=O)N1c2ccc(-c3cnn(C4CC4)c3)c(OCS(=O)(=O)N(C)C)c2CC[C@@H]1C` [I-29, (S)-methyl 6-(1-cyclopropyl-1H-pyrazol-4-yl)-5-((N,N-dimethylsulfamoyl)methoxy)-2-methyl-3,4-dihydroquinoline-1(2H)-carboxylate] are above 1000 nM, 50 to 500 nM and 1000 to 10000 nM.
Consider `COC(=O)N1c2ccc(-c3cnn(C4CC4)c3)c(OCCC3COC3)c2CC[C@@H]1C` [I-30, (S)-methyl 6-(1-cyclopropyl-1H-pyrazol-4-yl)-2-methyl-5-(2-(oxetan-3-yl)ethoxy)-3,4-dihydroquinoline-1(2H)-carboxylate], for which the IC50 in experiment [1] (MV4-11, 72 h) was below 500 nM; in experiment [2], 50 to 500 nM; in experiment [3], 1000 to 10000 nM.
As for `COC(=O)N1c2ccc(-c3cnn(C4CC4)c3)c(OCC3CC3(F)F)c2CC[C@@H]1C` (stereo partly drawn) [I-31, (2S)-methyl 6-(1-cyclopropyl-1H-pyrazol-4-yl)-5-((2,2-difluorocyclopropyl)methoxy)-2-methyl-3,4-dihydroquinoline-1(2H)-carboxylate], the IC50 in experiment [1] (MV4-11, 72 h) is 500 to 1000 nM; in experiment [2] it was below 50 nM; in experiment [3], 100 to 1000 nM.
Taken in the same sequence, the figures for `CCCOc1c(C2=CCN(C(=O)OC(C)(C)C)CC2)ccc2c1CC[C@H](C)N2C(C)=O` [I-34, tert-butyl (S)-4-(1-acetyl-2-methyl-5-propoxy-1,2,3,4-tetrahydroquinolin-6-yl)-3,6-dihydropyridine-1(2H)-carboxylate] were above 1000 nM, 50 to 500 nM and at least 10000 nM.
For the compound `CC(=O)N1c2ccc(-c3cnn(C4CC4)c3)c(OCC(F)(F)F)c2CC[C@@H]1C` [I-35, (S)-1-(6-(1-cyclopropyl-1H-pyrazol-4-yl)-2-methyl-5-(2,2,2-trifluoroethoxy)-3,4-dihydroquinolin-1(2H)-yl)ethanone], the IC50 in experiment [1] (MV4-11, 72 h) is 500 to 1000 nM; in experiment [2] it was 50 to 500 nM; in experiment [3], 1000 to 10000 nM.
In the same order, the values of `CC(=O)N1c2ccc(-c3cnn(C4CC4)c3)c(OCC(F)F)c2CC[C@@H]1C` [I-36, (S)-1-(6-(1-cyclopropyl-1H-pyrazol-4-yl)-5-(2,2-difluoroethoxy)-2-methyl-3,4-dihydroquinolin-1(2H)-yl)ethanone] are 500 to 1000 nM, below 50 nM and 1000 to 10000 nM.
In the same order, the values of `CC(=O)N1c2ccc(-c3cnn(C4CC4)c3)c(OCC(C)(C)CO)c2CC[C@@H]1C` [I-39, (S)-1-(6-(1-cyclopropyl-1H-pyrazol-4-yl)-5-(3-hydroxy-2,2-dimethylpropoxy)-2-methyl-3,4-dihydroquinolin-1(2H)-yl)ethanone] are 500 to 1000 nM, below 50 nM and 100 to 1000 nM.
`CC(=O)N1c2ccc(-c3cnn(C4CC4)c3)c(OCCN3CCCC3=O)c2CC[C@@H]1C` [I-42, (S)-1-(2-(1-acetyl-6-(1-cyclopropyl-1H-pyrazol-4-yl)-2-methyl-1,2,3,4-tetrahydroquinolin-5-yloxy)ethyl)pyrrolidin-2-one]: the IC50 was above 1000 nM in experiment [1] (MV4-11, 72 h); 50 to 500 nM in experiment [2]; 100 to 1000 nM in experiment [3].
Taken in the same sequence, the figures for `CC(=O)N1c2ccc(-c3cnn(C4CC4)c3)c(OCC(=O)N3CCOCC3)c2CC[C@@H]1C` [I-43, (S)-2-(1-acetyl-6-(1-cyclopropyl-1H-pyrazol-4-yl)-2-methyl-1,2,3,4-tetrahydroquinolin-5-yloxy)-1-morpholinoethanone] were above 1000 nM, 50 to 500 nM and 100 to 1000 nM.

The values above are taken from patent US10611750B2, “Tetrahydroquinoline compositions as bet bromodomain inhibitors” (FORMA Therapeutics, Inc., priority 2013, dated 2020).
